Measured values taken from ChEMBL document CHEMBL4837240 (J Med Chem, 2021).
Active and inactive are the calls of the source. No cut-off for these calls is given here.

Experiments:
[1] = molecular target: T1, Vascular endothelial growth factor receptor 3 (Homo sapiens, UniProt P35916); assay: Inhibition of human FLT4/VEGFR3
[2] = Clearance in Sprague-Dawley rat at 1 mg/kg, iv by LC-MS analysis; assay type: ADME, organism-based; conditions: in vivo
[3] = Antiproliferative activity against VEGF-D-induced human dermal lymphatic endothelial cells assessed as cell viability incubated for 48 hrs by CCK-8 assay; assay type: functional, tissue-based; conditions: HDLEC
[4] = molecular target: T1, Vascular endothelial growth factor receptor 3; assay: Inhibition of VEGFR3 in human dermal lymphatic endothelial cells assessed as inhibition of STAT5 phosphorylation incubated for 24 hrs by Western blot analysis; conditions: HDLEC
HDLEC [5] = assay: Antimigratory activity against VEGF-C-induced human dermal lymphatic endothelial cells assessed as cell migration at 100 nM incubated for 12 hrs by inverted microscopy based by transwell assay; assay type: functional, tissue-based
[6] = Cmax in Sprague-Dawley rat at 10 mg/kg, po by LC-MS analysis; assay type: ADME, organism-based; parameters: route oral, dose 10 mg/kg; conditions: in vivo
MDA-MB-436 [7] = assay: Induction of apoptosis in human MDA-MB-436 cells assessed as apoptotic cells at 2.5 uM incubated for 48 hrs by flow cytometry; assay type: functional
MDA-MB-231 [8] = assay: Induction of apoptosis in human MDA-MB-231 cells assessed as increase in apoptotic cells incubated for 24 hrs by Hoechst 33258 staining under a fluorescence microscopy; assay type: functional, cell-based
[9] = molecular target: Maternal embryonic leucine zipper kinase (Homo sapiens, UniProt Q14680); assay: Inhibition of human MELK
Sequence of Maternal embryonic leucine zipper kinase (Q14680 whole entry): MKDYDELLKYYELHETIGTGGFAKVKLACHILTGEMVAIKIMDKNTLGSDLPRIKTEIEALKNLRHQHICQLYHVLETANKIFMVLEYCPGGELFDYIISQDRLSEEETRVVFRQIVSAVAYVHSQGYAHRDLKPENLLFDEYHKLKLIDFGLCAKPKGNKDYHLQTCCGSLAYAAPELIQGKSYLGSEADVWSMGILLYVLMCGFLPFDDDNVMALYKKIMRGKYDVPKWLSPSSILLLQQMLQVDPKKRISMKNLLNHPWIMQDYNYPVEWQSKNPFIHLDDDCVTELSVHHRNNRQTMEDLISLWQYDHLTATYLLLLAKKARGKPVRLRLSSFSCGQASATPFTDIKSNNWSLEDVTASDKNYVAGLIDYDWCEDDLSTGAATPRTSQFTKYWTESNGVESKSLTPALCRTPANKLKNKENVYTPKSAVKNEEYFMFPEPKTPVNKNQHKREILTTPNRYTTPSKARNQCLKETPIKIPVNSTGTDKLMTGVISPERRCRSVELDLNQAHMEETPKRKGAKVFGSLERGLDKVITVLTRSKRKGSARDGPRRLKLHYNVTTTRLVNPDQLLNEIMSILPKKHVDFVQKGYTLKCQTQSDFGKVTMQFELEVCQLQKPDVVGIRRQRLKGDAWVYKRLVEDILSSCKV

MDA-MB-231 [10] = assay: Induction of apoptosis in human MDA-MB-231 cells assessed as downregulation of Bcl2 expression up to 10 uM incubated for 24 hrs by Western blotting analysis; assay type: functional, cell-based; conditions: dose microM <=10, time 24.0 hrs
HDLEC [11] = assay: Downregulation of MMP2 protein expression in human dermal lymphatic endothelial cells incubated for 24 hrs by Western blot analysis; assay type: functional, tissue-based
Mus musculus [12] = assay: Decrease in MMP-2 level in BALB/c mouse xenografted with MDA-MB-231 cells in tumor tissue at 25 mg/kg, po by immunohistochemistry analysis; assay type: functional, organism-based
[13] = molecular target: T1, Vascular endothelial growth factor receptor 3; assay: Inhibition of VEGFR3 phosphorylation in human MDA-MB-231 cells at 2.5 uM incubated for 24 hrs by Western blot analysis; assay type: cell-based
HDLEC [14] = assay: Inhibition of cell migration in VEGF-C-induced human dermal lymphatic endothelial cells assessed as cell migration at 100 nM incubated for 24 hrs by inverted microscopy based by scratch wound healing assay; assay type: functional, tissue-based
[15] = molecular target: Vascular endothelial growth factor receptor 3 (Mus musculus) (UniProt P35917); assay: In vivo inhibition of VEGFR3 phosphorylation in BALB/c mouse xenografted with MDA-MB-231 cells assessed as decrease in AKT phosphorylation at 25 mg/kg, po by immunohistochemistry analysis; assay type: functional, organism-based
Sequence of Vascular endothelial growth factor receptor 3 (Mus musculus) (P35917 whole entry): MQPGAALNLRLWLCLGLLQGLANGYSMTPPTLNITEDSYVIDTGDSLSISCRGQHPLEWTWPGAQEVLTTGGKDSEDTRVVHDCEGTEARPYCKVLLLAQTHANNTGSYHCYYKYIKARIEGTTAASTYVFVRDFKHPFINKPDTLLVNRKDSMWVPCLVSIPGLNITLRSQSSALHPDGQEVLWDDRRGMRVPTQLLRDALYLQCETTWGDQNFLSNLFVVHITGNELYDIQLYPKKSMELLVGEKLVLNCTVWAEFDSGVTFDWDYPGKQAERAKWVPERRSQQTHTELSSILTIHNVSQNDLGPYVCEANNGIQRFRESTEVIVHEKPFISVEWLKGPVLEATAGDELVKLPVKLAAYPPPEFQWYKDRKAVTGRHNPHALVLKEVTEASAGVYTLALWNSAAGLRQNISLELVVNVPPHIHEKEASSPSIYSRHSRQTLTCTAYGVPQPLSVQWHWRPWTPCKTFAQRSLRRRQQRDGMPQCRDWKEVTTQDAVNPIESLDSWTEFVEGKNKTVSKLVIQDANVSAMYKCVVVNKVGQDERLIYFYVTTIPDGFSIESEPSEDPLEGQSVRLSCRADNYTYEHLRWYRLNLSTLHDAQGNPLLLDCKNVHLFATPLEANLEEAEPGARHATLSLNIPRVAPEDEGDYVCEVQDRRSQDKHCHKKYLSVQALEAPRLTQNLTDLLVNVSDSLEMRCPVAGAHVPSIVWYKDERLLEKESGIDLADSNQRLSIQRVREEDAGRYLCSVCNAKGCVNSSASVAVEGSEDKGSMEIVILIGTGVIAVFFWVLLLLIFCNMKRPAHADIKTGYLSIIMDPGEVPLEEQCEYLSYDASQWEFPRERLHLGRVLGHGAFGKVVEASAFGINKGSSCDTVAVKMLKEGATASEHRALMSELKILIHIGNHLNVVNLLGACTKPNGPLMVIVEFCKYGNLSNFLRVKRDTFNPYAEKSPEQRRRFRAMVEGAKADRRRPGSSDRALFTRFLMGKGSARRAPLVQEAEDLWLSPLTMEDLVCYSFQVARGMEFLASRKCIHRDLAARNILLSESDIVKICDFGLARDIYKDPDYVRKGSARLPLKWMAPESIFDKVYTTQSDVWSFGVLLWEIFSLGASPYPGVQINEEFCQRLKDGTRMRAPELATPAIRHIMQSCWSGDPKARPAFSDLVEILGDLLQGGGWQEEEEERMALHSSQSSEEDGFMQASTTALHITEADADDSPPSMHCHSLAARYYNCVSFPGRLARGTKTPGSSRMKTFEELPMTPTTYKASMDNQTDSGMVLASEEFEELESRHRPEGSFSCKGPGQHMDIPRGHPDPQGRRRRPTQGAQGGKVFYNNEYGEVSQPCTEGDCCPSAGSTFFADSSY

Mus musculus [16] = assay: In vivo inhibition of VEGFR2 phosphorylation in BALB/c mouse xenografted with MDA-MB-231 cells at 25 mg/kg, po by immunohistochemistry analysis; assay type: functional, organism-based
[17] = molecular target: T1, Vascular endothelial growth factor receptor 3; assay: Inhibition of VEGFR3 phosphorylation in human MDA-MB-436 cells at 2.5 uM incubated for 24 hrs by Western blot analysis; assay type: cell-based
HDLEC [18] = assay: Upregulation of E-cadherin protein expression in human dermal lymphatic endothelial cells incubated for 24 hrs by Western blot analysis; assay type: functional
Mus musculus [19] = assay: Upregulation of E-cadherin protein expression human MDA-MB-231 cells injected into vein of BALB/c mouse lung metastatic model at 50 mg/kg, po once a day measured on day 21 by […]; assay type: functional, organism-based
MDA-MB-436 [20] = assay: Anticancer activity against human MDA-MB-436 cells assessed as cell viability incubated for 48 hrs by MTT assay; conditions: MDA-MB-436, 48 h
[21] = molecular target: T1, Vascular endothelial growth factor receptor 3; assay: Inhibition of VEGFR3 in human MDA-MB-231 cells assessed as inhibition of ERK1/2 phosphorylation at 2.5 uM incubated for 24 hrs by Western blot analysis; assay type: cell-based
[22] = Toxicity in BALB/c mouse xenografted with MDA-MB-231 cells assessed as AST level in blood at 300 mg/kg, po; assay type: organism-based; conditions: in vivo
MDA-MB-231 [23] = assay: Anticancer activity against human MDA-MB-231 cells assessed as cell viability incubated for 48 hrs by MTT assay; conditions: MDA-MB-231, 48 h
MDA-MB-231 [24] = assay: Induction of apoptosis in human MDA-MB-231 cells assessed as apoptotic cells at 2.5 to 5 uM incubated for 48 hrs by flow cytometry (reference value: 7.2%); assay type: functional; conditions: dose 2.5-5 µM
Misshapen-like kinase 1 = Misshapen-like kinase 1 (Homo sapiens, UniProt Q8N4C8); assay: Inhibition of human MINK assessed as residual kinase activity at 1 uM relative to control
Sequence of Misshapen-like kinase 1 (Q8N4C8 whole entry, looked up): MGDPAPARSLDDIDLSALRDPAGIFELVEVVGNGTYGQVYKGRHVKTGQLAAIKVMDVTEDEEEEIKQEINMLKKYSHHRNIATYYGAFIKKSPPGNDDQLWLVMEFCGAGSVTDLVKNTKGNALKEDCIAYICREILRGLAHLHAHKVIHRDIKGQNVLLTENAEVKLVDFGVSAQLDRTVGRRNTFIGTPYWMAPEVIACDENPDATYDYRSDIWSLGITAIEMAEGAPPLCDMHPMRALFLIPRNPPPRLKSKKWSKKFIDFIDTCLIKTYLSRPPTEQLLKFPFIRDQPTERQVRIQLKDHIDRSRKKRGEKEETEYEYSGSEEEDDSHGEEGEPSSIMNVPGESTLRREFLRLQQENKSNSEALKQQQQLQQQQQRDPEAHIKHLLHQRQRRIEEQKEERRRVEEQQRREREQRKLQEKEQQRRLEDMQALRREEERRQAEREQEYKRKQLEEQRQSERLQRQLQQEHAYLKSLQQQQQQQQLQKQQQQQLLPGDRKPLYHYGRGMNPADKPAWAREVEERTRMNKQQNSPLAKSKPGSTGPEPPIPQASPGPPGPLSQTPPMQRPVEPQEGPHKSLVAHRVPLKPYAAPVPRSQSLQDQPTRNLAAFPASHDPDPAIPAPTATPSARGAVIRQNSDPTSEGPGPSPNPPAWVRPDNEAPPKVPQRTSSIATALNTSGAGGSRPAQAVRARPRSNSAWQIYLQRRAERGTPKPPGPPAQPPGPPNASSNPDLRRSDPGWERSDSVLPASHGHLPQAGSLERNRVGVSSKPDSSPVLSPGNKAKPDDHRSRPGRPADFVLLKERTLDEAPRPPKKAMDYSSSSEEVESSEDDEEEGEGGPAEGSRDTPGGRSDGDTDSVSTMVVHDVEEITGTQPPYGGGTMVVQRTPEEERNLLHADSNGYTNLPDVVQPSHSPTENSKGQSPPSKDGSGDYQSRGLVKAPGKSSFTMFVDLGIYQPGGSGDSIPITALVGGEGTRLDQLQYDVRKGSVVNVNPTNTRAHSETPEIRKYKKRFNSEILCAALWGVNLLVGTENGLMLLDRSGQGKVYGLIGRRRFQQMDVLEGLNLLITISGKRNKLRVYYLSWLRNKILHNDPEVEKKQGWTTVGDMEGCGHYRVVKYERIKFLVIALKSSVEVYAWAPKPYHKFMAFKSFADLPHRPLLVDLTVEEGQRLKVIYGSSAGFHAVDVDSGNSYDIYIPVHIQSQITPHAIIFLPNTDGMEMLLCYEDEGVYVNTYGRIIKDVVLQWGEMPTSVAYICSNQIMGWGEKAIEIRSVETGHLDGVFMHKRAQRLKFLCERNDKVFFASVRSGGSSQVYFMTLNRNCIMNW

Mus musculus [25] = assay: Decrease in Ki-67 level in BALB/c mouse xenografted with MDA-MB-231 cells in tumor tissue at 25 mg/kg, po by immunohistochemistry analysis; assay type: functional, organism-based
[26] = molecular target: T1, Vascular endothelial growth factor receptor 3; assay: Inhibition of VEGFR3 in human MDA-MB-436 cells assessed as inhibition of AKT phosphorylation at 2.5 uM incubated for 24 hrs by Western blot analysis; assay type: cell-based
[27] = Antitumor activity against human MDA-MB-231 cells xenografted in BALB/c mouse assessed as tumor growth inhibition at 50 mg/kg, po relative to control; assay type: functional; conditions: read-out: TGI
MDA-MB-436 [28] = assay: Antimigratory activity against human MDA-MB-436 cells assessed as reduction in cell migration incubated for 12 hrs by transwell assay; assay type: functional, cell-based
[29] = Toxicity in BALB/c mouse xenografted with MDA-MB-231 cells assessed as change in lung at 300 mg/kg, po by hematoxylin and eosin staining based analysis; assay type: organism-based; conditions: in vivo
Mus musculus [30] = assay: Decrease in p-VEGFR3 level in BALB/c mouse xenografted with MDA-MB-231 cells in tumor tissue at 25 mg/kg, po by immunohistochemistry analysis; assay type: functional, organism-based
[31] = Toxicity in po dosed BALB/c mouse xenografted with MDA-MB-231 cells assessed as maximum tolerated dose; assay type: organism-based; conditions: in vivo
[32] = molecular target: T1, Vascular endothelial growth factor receptor 3; assay: Inhibition of VEGFR3 in human dermal lymphatic endothelial cells assessed as inhibition of AKT phosphorylation incubated for 24 hrs by Western blot analysis; assay type: tissue-based; conditions: HDLEC
MDA-MB-436 [33] = assay: Induction of apoptosis in human MDA-MB-436 cells assessed as increase in apoptotic cells incubated for 24 hrs by Hoechst 33258 staining under a fluorescence microscopy; assay type: functional, cell-based
MDA-MB-436 [34] = assay: Induction of apoptosis in human MDA-MB-436 cells assessed as accumulation at G1 phase incubated for 48 hrs by flow cytometry; assay type: functional, cell-based
Mus musculus [35] = assay: Decrease in LYVE-1 level in BALB/c mouse xenografted with MDA-MB-231 cells in tumor tissue at 25 mg/kg, po by immunohistochemistry analysis; assay type: functional, organism-based
[36] = molecular target: T1, Vascular endothelial growth factor receptor 3; assay: Inhibition of human FLT4/VEGFR3 assessed as residual kinase activity at 1 uM relative to control
[37] = Cmax in Sprague-Dawley rat at 1 mg/kg, iv by LC-MS analysis; assay type: ADME, organism-based; parameters: route intravenous, dose 1 mg/kg; conditions: in vivo
MDA-MB-231 [38] = assay: Induction of apoptosis in human MDA-MB-231 cells assessed as cleaved caspase 3 up to 10 uM incubated for 24 hrs by Western blotting analysis; assay type: functional, cell-based; conditions: dose microM <=10, time 24.0 hrs
[39] = molecular target: T1, Vascular endothelial growth factor receptor 3; assay: Inhibition of VEGFR3 in human MDA-MB-231 cells assessed as inhibition of AKT phosphorylation at 2.5 uM incubated for 24 hrs by Western blot analysis; assay type: cell-based

T1 sequence (P35916 whole entry): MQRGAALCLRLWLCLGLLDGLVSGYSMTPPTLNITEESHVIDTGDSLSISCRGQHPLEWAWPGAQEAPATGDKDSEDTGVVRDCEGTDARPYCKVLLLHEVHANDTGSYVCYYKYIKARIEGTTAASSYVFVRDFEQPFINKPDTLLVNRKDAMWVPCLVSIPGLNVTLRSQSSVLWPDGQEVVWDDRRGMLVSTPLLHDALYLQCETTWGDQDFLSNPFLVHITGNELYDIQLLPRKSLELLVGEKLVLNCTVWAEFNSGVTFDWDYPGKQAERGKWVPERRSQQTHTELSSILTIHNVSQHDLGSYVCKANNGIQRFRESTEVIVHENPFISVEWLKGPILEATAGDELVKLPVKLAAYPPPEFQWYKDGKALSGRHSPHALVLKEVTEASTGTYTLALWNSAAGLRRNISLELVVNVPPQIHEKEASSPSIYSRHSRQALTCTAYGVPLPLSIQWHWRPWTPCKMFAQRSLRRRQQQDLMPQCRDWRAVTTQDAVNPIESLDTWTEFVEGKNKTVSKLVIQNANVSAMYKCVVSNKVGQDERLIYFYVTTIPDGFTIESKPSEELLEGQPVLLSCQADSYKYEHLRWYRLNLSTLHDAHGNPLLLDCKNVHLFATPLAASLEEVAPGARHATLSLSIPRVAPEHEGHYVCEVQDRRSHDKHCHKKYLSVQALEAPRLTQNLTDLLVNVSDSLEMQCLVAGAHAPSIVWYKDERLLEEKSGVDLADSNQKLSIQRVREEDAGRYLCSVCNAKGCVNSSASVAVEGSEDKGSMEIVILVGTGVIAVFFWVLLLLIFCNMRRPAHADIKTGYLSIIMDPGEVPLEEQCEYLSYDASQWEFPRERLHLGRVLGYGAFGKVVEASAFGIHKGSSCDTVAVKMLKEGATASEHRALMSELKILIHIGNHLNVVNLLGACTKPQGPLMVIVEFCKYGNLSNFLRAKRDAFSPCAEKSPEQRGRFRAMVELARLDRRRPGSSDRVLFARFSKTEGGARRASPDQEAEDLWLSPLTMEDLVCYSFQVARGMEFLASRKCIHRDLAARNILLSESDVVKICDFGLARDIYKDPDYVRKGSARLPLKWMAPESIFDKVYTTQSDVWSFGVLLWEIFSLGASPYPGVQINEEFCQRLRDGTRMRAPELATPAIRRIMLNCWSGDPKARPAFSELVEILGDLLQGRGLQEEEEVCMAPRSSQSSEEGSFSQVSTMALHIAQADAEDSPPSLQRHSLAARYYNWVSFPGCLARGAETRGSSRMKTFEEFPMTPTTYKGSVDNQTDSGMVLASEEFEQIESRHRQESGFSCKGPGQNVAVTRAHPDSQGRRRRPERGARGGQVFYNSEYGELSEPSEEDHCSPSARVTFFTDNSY

For `CN1CCN(c2ccc(-c3cc4c(N5CCN(C(=O)Nc6ccc(Cl)c(C(F)(F)F)c6)CC5)ncnc4s3)cc2)CC1`, the IC50 [1] was 110 nM, the clearance [2] was 4.8 mL/min/kg and the IC50 [3] was 680 nM. For the same molecule, the inhibition [4] was “Dose-Dependent Effect”, the Activity (HDLEC [5]) was “Active” and the Cmax [6] was 420 ng/mL. The Activity (MDA-MB-436 [7]) was 30.5%, the Activity (MDA-MB-231 [8]) was “Dose-Dependent Effect” and the IC50 [9] was 700 nM. The Activity (MDA-MB-231 [10]) was “Active”, the Activity (HDLEC [11]) was “Active” and the Activity (Mus musculus [12]) was “Active”. For the same molecule, the inhibition [13] was “Active”, the Activity (HDLEC [14]) was “Active” and the Activity [15] was “Active”. The Activity (Mus musculus [16]) was “inactive”, the inhibition [17] was “Active” and the Activity (HDLEC [18]) was “Active”. The Activity (Mus musculus [19]) was “Active”, the IC50 (MDA-MB-436 [20]) was 3500 nM and the inhibition [21] was “Active”. The Activity [22] was “Non-Toxic”, the IC50 (MDA-MB-231 [23]) was 2220 nM and the Activity (MDA-MB-231 [24]) was 19.7%. For the same molecule, the Activity (Misshapen-like kinase 1) was 5%, the Activity (Mus musculus [25]) was “Active” and the inhibition [26] was “Active”. The inhibition in vivo at 50 mg/kg [27] was 61.9%, the Activity (MDA-MB-436 [28]) was “Active” and the Activity [29] was “Non-Toxic”. For the same molecule, the Activity (Mus musculus [30]) was “Active”, the MTD [31] was 300 mg/kg and the inhibition [32] was “Dose-Dependent Effect”. The Activity (MDA-MB-436 [33]) was “Dose-Dependent Effect”, the Activity (MDA-MB-436 [34]) was “Dose-Dependent Effect” and the Activity (Mus musculus [35]) was “Active”. For the same molecule, the Activity [36] was 0%, the Cmax [37] was 420 ng/mL and the Activity (MDA-MB-231 [38]) was “Active”. For the same molecule, the inhibition [39] was “Active”.
